Results on one compound are retold here after patent publication US9365572B2, “PI3K and/or mTOR inhibitor” (XUANZHU PHARMA CO., LTD., priority 2012, dated 2016).

The target of assay [1] is Platelet Activating Factor (PAF) (Homo sapiens (Human), UniProt P25105). Description: Radioligand binding assay No. 265010. The conditions noted are these: test substance 10 μM, read-out: Inhibitory rate (%), Platelet Activating Factor (PAF).
Assay [2] concerns the target Transporter, Norepinephrine (NET) (Homo sapiens (Human), UniProt P23975). Description: Radioligand binding assay No. 204410. The settings on record: test substance 10 μM, read-out: Inhibitory rate (%), Transporter, Norepinephrine (NET).
Assay [3] deals with Adrenergic α1B (Rattus norvegicus (Rat), UniProt P15823). Description: Radioligand binding assay No. 203200. The settings on record: test substance 10 μM, read-out: Inhibitory rate (%), Adrenergic α1B.
Assay [4] addresses Glucocorticoid (Homo sapiens (Human), UniProt P04150). Description: Radioligand binding assay No. 232030. The conditions noted are these: test substance 10 μM, read-out: Inhibitory rate (%), Glucocorticoid.
The target in assay [5] is Androgen (Testosterone) AR (Rattus norvegicus (Rat), UniProt P15207). Put plainly: Radioligand binding assay No. 285010. The conditions noted are these: test substance 10 μM, read-out: Inhibitory rate (%), Androgen (Testosterone) AR.
Assay [6] has as its target Adenosine A3 (Homo sapiens (Human), UniProt P0DMS8). Description: Radioligand binding assay No. 200720. The conditions noted are these: test substance 10 μM, read-out: Inhibitory rate (%), Adenosine A3.
Assay [7] has as its target Serotonin (5-Hydroxytryptamine) 5-HT2B (Homo sapiens (Human), UniProt P41595). Description: Radioligand binding assay No. 271700. The conditions noted are these: test substance 10 μM, read-out: Inhibitory rate (%), Serotonin (5-Hydroxytryptamine) 5-HT2B.
For assay [8], the target named is Opiate δ1 (OP1, DOP) (Homo sapiens (Human), UniProt P41143). Put plainly: Radioligand binding assay No. 260130. The conditions noted are these: test substance 10 μM, read-out: Inhibitory rate (%), Opiate δ1 (OP1, DOP).
Assay [9] deals with Calcium Channel N-Type (Rattus norvegicus (Rat), UniProt Q02294). Put plainly: Radioligand binding assay No. 216000. The conditions noted are these: test substance 10 μM, read-out: Inhibitory rate (%), Calcium Channel N-Type.
Assay [10] has as its system Calcium Channel L-Type, Benzothiazepine. Description: Radioligand binding assay No. 214510. The conditions noted are these: test substance 10 μM; rat.
Assay [11] concerns the target Melatonin MT1 (Homo sapiens (Human), UniProt P48039). Put plainly: Radioligand binding assay No. 251600. The settings on record: test substance 10 μM, read-out: Inhibitory rate (%), Melatonin MT1.
The target in assay [12] is Endothelin ETB (Homo sapiens (Human), UniProt P24530). Put plainly: Radioligand binding assay No. 224110. The conditions noted are these: test substance 10 μM, read-out: Inhibitory rate (%), Endothelin ETB.
The subject of assay [13] is Transporter, GABA. Put plainly: Radioligand binding assay No. 226400. The settings on record: test substance 10 μM; rat.
In assay [14] the test system is non-kinase drug target ligands listed in Table 5. Description: Drug target radioligand competitive binding assay, whole panel of Table 5. The conditions noted are these: test substance 10 μM, summary of Table 5.
In assay [15] the target is Neuropeptide Y Y2 (Homo sapiens (Human), UniProt P49146). Put plainly: Radioligand binding assay No. 257110. The settings on record: test substance 10 μM, read-out: Inhibitory rate (%), Neuropeptide Y Y2.
Assay [16] deals with Adrenergic α1A (Rattus norvegicus (Rat), UniProt P43140). Description: Radioligand binding assay No. 203100. The conditions noted are these: test substance 10 μM, read-out: Inhibitory rate (%), Adrenergic α1A.
Assay [17] addresses Glutamate, NMDA, Glycine (Rattus norvegicus (Rat), UniProt P35439). Description: Radioligand binding assay No. 232910. The settings on record: test substance 10 μM, read-out: Inhibitory rate (%), Glutamate, NMDA, Glycine.
Assay [18] deals with Endothelin ETA (Homo sapiens (Human), UniProt P25101). Put plainly: Radioligand binding assay No. 224010. The settings on record: test substance 10 μM, read-out: Inhibitory rate (%), Endothelin ETA.
Assay [19] deals with Rolipram. Put plainly: Radioligand binding assay No. 270000. The conditions noted are these: test substance 10 μM; rat.
The target of assay [20] is Dopamine D1 (Homo sapiens (Human), UniProt P21728). Description: Radioligand binding assay No. 219500. The conditions noted are these: test substance 10 μM, read-out: Inhibitory rate (%), Dopamine D1.

The structures appear in SMILES notation.

Chain of Dopamine D1 (P21728 whole entry): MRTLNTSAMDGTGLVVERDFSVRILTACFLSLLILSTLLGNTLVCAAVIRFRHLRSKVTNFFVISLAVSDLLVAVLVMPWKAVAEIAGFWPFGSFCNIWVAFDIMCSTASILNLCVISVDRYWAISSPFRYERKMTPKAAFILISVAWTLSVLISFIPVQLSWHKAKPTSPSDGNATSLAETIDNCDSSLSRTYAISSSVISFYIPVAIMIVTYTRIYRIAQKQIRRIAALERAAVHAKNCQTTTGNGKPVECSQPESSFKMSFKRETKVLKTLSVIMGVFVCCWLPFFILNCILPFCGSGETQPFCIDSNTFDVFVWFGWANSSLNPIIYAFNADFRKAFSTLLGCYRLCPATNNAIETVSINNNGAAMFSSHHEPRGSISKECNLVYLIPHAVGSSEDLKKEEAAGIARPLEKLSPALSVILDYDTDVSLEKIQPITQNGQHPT
Chain of Neuropeptide Y Y2 (P49146 whole entry): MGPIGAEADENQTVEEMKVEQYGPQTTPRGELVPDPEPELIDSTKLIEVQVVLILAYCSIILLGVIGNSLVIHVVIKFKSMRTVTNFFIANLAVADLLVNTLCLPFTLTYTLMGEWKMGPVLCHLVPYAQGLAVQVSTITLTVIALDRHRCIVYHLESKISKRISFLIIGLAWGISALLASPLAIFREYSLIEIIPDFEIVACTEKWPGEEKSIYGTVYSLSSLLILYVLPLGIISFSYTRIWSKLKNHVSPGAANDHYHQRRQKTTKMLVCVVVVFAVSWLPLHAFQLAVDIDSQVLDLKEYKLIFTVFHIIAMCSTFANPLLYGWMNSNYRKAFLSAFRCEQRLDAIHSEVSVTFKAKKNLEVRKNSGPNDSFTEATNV
Chain of Opiate δ1 (OP1, DOP) (P41143 whole entry): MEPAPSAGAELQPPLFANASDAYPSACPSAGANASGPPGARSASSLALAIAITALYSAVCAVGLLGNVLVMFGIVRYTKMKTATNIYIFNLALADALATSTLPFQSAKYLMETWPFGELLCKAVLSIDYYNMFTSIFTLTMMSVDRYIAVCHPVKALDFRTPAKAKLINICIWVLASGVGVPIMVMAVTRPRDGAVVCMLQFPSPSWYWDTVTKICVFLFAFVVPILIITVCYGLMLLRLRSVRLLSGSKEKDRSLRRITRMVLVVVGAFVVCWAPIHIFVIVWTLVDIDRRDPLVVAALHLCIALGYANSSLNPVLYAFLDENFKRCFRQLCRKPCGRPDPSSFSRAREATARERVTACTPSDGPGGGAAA
Chain of Adrenergic α1A (P43140 whole entry): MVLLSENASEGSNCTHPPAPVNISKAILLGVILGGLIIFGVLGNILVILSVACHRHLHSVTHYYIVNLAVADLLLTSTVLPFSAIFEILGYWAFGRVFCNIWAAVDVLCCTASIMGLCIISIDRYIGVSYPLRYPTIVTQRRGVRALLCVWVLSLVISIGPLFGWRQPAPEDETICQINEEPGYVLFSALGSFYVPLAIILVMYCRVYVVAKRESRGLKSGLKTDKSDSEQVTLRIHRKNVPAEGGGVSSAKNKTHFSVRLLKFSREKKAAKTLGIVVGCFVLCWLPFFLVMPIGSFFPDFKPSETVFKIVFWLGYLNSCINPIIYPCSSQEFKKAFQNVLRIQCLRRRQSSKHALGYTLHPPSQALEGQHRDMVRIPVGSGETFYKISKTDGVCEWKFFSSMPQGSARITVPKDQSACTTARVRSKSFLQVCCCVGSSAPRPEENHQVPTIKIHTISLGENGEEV
Chain of Endothelin ETB (P24530 27-442): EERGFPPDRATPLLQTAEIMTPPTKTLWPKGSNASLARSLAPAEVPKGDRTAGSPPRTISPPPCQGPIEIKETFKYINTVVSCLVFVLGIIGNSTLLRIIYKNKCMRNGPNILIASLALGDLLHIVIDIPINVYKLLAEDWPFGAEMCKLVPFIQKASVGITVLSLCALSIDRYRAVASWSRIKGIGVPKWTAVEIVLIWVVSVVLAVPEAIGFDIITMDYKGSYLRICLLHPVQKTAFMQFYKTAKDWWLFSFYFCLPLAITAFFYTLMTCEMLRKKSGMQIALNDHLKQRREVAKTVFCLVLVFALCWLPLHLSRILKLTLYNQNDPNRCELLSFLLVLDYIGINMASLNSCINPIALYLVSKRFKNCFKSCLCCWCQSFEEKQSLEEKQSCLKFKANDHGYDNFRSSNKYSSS
Chain of Calcium Channel N-Type (Q02294 whole entry): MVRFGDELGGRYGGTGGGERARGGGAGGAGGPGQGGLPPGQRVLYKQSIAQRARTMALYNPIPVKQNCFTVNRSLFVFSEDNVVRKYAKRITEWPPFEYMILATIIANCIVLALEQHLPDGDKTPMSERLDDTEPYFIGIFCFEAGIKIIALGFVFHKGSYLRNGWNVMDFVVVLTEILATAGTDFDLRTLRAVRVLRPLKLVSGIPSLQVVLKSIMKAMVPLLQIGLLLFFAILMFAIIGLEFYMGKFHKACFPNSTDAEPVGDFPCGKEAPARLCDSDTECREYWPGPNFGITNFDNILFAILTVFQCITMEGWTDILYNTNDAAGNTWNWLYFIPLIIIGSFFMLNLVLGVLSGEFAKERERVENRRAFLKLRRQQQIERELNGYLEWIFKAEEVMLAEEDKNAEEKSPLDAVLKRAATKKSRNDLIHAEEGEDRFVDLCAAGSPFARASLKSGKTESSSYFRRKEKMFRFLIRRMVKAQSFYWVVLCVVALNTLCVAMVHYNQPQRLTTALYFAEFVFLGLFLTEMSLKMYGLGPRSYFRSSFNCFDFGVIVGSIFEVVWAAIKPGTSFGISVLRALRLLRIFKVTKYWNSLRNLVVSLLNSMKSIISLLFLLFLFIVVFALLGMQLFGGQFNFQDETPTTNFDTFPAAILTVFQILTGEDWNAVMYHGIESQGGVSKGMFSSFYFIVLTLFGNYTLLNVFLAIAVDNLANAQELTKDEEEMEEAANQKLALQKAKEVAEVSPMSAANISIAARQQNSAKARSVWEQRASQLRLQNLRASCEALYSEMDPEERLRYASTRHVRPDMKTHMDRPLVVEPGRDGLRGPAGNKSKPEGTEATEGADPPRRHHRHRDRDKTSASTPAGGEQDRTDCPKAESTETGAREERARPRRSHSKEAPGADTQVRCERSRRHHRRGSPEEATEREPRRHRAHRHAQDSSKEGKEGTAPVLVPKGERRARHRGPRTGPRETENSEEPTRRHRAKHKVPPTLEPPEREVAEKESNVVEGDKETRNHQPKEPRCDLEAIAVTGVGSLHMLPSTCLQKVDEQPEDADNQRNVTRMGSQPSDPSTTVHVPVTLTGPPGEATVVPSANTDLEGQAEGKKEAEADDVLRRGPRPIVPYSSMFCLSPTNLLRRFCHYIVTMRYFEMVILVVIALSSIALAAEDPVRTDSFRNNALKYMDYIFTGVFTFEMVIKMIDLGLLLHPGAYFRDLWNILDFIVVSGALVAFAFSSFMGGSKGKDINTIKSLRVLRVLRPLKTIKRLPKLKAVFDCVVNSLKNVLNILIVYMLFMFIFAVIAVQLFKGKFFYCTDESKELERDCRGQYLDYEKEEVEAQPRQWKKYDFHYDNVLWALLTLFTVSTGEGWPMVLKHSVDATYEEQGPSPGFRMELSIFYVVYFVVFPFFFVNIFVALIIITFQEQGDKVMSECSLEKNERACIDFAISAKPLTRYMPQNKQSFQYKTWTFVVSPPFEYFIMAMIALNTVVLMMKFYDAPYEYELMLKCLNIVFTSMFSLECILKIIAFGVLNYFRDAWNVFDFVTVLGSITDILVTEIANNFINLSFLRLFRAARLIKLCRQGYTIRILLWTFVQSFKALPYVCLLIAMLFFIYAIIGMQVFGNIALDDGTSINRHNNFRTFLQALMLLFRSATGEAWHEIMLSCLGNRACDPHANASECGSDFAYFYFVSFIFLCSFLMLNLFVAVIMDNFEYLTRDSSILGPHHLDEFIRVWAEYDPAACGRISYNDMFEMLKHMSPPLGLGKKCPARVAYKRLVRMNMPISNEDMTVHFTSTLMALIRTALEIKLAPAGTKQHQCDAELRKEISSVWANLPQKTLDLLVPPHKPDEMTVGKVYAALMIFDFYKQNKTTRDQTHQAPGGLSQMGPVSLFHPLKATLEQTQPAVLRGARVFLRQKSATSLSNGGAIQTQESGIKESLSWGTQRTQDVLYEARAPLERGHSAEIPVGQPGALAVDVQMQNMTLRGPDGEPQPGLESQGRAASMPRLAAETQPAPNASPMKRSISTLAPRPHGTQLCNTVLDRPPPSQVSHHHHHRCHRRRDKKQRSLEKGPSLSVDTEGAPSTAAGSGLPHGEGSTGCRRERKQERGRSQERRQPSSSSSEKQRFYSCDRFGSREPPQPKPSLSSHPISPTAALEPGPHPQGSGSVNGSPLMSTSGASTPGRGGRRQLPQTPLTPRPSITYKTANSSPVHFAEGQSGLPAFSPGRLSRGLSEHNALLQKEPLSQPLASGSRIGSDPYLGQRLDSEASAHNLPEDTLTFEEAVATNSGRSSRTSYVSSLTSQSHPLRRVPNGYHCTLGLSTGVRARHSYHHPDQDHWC
Chain of Platelet Activating Factor (PAF) (P25105 whole entry): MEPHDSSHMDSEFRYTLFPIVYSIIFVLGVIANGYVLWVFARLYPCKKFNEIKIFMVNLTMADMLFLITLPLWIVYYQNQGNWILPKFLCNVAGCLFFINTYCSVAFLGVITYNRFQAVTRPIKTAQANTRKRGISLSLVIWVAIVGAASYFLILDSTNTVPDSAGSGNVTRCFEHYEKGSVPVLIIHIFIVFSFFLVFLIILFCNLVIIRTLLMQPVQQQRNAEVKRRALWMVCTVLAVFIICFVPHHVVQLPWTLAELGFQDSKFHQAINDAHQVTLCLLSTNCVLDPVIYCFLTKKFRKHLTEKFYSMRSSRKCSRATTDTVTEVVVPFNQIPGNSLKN

On to `Nc1ccc(-c2ccc3ncc4c(=O)[nH]c(=O)n(-c5cccc(C(F)(F)F)c5)c4c3n2)cn1` [Compound 5, 9-(6-aminopyridin-3-yl)-1-(3-(trifluoromethyl)phenyl)pyrimido[5,4-c][1,5]naphthyridine-2,4(1H,3H)-dione], for which the inhibition at 10 µM was 20% in [1]; -5% in assay [2]; 21% in assay [3]; -4% in [4]; 30% in assay [5]; 11% in assay [6]. Also, the inhibition at 10 µM in assay [7] is 13%; in assay [8], 4%; in assay [9], -22%; in [11], 17%; in assay [12] it was 7%; in assay [15], 10%. Further, the inhibition at 10 µM stood at 13% in assay [16], 29% in assay [17], 3% in [18] and 21% in [20]. For the same compound, the “Inhibitory rate (%), Calcium Channel L-Type, Benzothiazepine” value in assay [10] amounted to 15%. Also, the “Inhibitory rate (%), Transporter, GABA” value in assay [13] is recorded as 12%. The “inhibitory rates on the listed non-kinase drug target ligands” value in [14] was “less than 50%”. Besides, the “Inhibitory rate (%), Rolipram” value in assay [19] amounted to 20%.
